{"source": "ChEMBL document CHEMBL5370665", "about": "“Insight from Linker Investigations: Discovery of a Novel Phenylbenzothiazole Necroptosis Inhibitor Targeting Receptor-Interacting Protein Kinase 1 (RIPK1) from a Phenoxybenzothiazole Compound with Dual RIPK1/3 Targeting Activity” (J Med Chem, 2023)", "key": {"[1]": {"test": "Metabolic stability in human liver mitochondria assessed as degradation rate at 4 micromol/L and measured upto 240 mins", "format": "ADME", "details": "4 h, 4 µM, dose 4 µmol/L"}, "[2]": {"target": "T1, Mixed lineage kinase domain-like protein (Homo sapiens) (UniProt Q8NB16)", "T1 sequence (whole entry)": "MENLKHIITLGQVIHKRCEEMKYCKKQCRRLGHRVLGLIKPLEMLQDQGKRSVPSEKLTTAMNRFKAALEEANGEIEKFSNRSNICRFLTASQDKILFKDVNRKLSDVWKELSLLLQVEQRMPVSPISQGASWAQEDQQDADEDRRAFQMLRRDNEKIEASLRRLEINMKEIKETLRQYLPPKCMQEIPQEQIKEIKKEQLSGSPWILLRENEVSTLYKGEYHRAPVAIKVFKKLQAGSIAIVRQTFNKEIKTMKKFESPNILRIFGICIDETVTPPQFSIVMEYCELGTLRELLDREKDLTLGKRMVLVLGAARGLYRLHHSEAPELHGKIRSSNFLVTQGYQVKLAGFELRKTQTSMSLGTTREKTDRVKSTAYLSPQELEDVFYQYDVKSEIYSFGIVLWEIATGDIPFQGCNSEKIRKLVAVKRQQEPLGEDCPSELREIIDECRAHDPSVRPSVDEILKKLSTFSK", "test": "Inhibition of MLKL phosphorylation in TSZ induced human HT-29 cells at 1 to 1000 nM pretreated with compound followed by TSZ stimulation for 6 hrs by Western blot analysis", "format": "cell-based", "details": "dose 1-1000 nM"}, "[3]": {"test": "Acute toxicity in mouse assessed as pathological damage in lung at 100 to 200 mg/kg,IG and measured after 14 days by H and E staining based microscopy", "format": "organism-based", "details": "in vivo, po, 336 h, dose 100-200 mg/kg, time 14 day"}, "HT-29 [4]": {"test_system": "HT-29", "test": "Anti-necroptic activity against human HT-29 cells assessed as inhibition of TSZ (TNFalpha, Smac mimetic and z-VAD-FMK) induced necroptosis pretreated with compound followed by TSZ stimulation for 16 to 18 hrs by CellTiter-Glo Luminescent cell viability assay", "format": "functional, cell-based"}, "[5]": {"target": "T2, Receptor-interacting serine/threonine-protein kinase 3 (Homo sapiens, UniProt Q9Y572)", "test": "Inhibition of RIPK3 phosphorylation in TSZ induced human HT-29 cells at 1 to 1000 nM pretreated with compound followed by TSZ stimulation for 6 hrs by Western blot analysis", "format": "cell-based", "details": "dose 1-1000 nM"}, "Mus musculus [6]": {"test_system": "Mus musculus", "test": "Anti-inflammatory activity against C57BL/6J mouse model of TNFalpha-induced systemic inflammatory response syndrome (SIRS) assessed as decrease in IL-1beta level in brain at 1.25 to 5 mg/kg,po 2 hrs prior to mTNFalpha and z-VAD-FMK stimulation for 8 hrs by ELISA", "format": "functional, organism-based", "details": "dose 1.25-5 mg/kg, time 10.0 hrs"}, "[7]": {"test": "Cytotoxicity against human HT-29 cells assessed as reduction in cell viability incubated for 16 to 24 hrs by CellTiter-Glo Luminescent cell viability assay", "format": "toxicity, cell-based", "details": "time 16-24 hrs"}, "HT-29 [8]": {"test_system": "HT-29", "test": "Anti-necroptic activity against human HT-29 cells assessed as inhibition of TCZ (human TNFalpha, cycloheximide and z-VAD-FMK) induced necroptosis at 125 to 500 nM pretreated with compound followed by TCZ stimulation for 18 hrs by CellTiter-Glo Luminescent cell viability assay", "format": "functional, cell-based", "details": "dose 125-500 nM"}, "[9]": {"test": "Acute toxicity in mouse assessed as pathological damage in brain at 100 to 200 mg/kg,IG and measured after 14 days by H and E staining based microscopy", "format": "organism-based", "details": "in vivo, po, 336 h, dose 100-200 mg/kg, time 14 day"}, "[10]": {"target": "T3, Receptor-interacting serine/threonine-protein kinase 1 (Homo sapiens) (UniProt Q13546)", "T3 sequence (whole entry)": "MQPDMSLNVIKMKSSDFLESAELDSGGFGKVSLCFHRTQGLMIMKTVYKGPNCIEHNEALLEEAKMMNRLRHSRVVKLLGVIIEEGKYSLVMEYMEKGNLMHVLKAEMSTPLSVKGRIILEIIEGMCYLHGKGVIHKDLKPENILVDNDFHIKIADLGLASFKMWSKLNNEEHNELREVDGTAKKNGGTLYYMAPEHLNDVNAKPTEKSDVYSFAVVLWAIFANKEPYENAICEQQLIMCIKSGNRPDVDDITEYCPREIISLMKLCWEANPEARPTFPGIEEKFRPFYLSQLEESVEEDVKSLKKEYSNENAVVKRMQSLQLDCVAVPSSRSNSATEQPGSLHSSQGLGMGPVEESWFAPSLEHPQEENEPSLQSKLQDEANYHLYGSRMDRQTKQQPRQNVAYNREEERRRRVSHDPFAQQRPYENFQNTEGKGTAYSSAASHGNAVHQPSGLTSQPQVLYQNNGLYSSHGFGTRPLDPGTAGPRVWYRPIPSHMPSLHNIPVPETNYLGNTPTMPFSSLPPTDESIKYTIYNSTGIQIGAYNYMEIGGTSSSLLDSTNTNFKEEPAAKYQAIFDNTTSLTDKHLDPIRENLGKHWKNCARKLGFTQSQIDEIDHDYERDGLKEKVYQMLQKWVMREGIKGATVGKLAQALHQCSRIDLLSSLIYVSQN", "test": "Inhibition of RIPK1 phosphorylation in TSZ induced human HT-29 cells at 1 uM pretreated with compound followed by TSZ stimulation for 6 hrs by Western blot analysis", "format": "cell-based"}, "Mus musculus [11]": {"test_system": "Mus musculus", "test": "Anti-inflammatory activity against C57BL/6J mouse model of TNFalpha-induced systemic inflammatory response syndrome (SIRS) assessed as increase in survival rate at 2.5 mg/kg,po 2 hrs prior to mTNFalpha and z-VAD-FMK stimulation and measured upto 24 hrs", "format": "functional", "details": "time 26 hrs"}, "Mus musculus [12]": {"test_system": "Mus musculus", "test": "Anti-inflammatory activity against C57BL/6J mouse model of TNFalpha-induced systemic inflammatory response syndrome (SIRS) assessed as decrease in IL-1beta level in kidney at 1.25 to 5 mg/kg,po 2 hrs prior to mTNFalpha and z-VAD-FMK stimulation for 8 hrs by ELISA", "format": "functional, organism-based", "details": "dose 1.25-5 mg/kg, time 10.0 hrs"}, "[13]": {"target": "T2, Receptor-interacting serine/threonine-protein kinase 3", "test": "Binding affinity to recombinant RIPK3 (unknown origin) assessed as dissociation constant incubated for 1 hr by KINOMEscanTM assay"}, "Mus musculus [14]": {"test_system": "Mus musculus", "test": "Anti-inflammatory activity against C57BL/6J mouse model of TNFalpha-induced systemic inflammatory response syndrome (SIRS) assessed as decrease in IL-6 level in spleen at 1.25 to 5 mg/kg,po 2 hrs prior to mTNFalpha and z-VAD-FMK stimulation for 8 hrs by ELISA", "format": "functional, organism-based", "details": "dose 1.25-5 mg/kg, time 10.0 hrs"}, "[15]": {"target": "T1, Mixed lineage kinase domain-like protein (Homo sapiens)", "test": "Inhibition of MLKL phosphorylation in TSZ induced human HT-29 cells at 1 uM pretreated with compound followed by TSZ stimulation for 6 hrs by Western blot analysis", "format": "cell-based"}, "Mus musculus [16]": {"test_system": "Mus musculus", "test": "Anti-inflammatory activity against C57BL/6J mouse model of TNFalpha-induced systemic inflammatory response syndrome (SIRS) assessed as decrease in IL-1beta level in lung at 1.25 to 5 mg/kg,po 2 hrs prior to mTNFalpha and z-VAD-FMK stimulation for 8 hrs by ELISA", "format": "functional, organism-based", "details": "dose 1.25-5 mg/kg, time 10.0 hrs"}, "Mus musculus [17]": {"test_system": "Mus musculus", "test": "Anti-inflammatory activity against C57BL/6J mouse model of TNFalpha-induced systemic inflammatory response syndrome (SIRS) assessed as decrease in IL-6 level in brain at 1.25 to 5 mg/kg,po 2 hrs prior to mTNFalpha and z-VAD-FMK stimulation for 8 hrs by ELISA", "format": "functional, organism-based", "details": "dose 1.25-5 mg/kg, time 10.0 hrs"}}, "note": "Calls of active or inactive are those of the source. No cut-off for these calls is given here."}
{"molecule": "O=C(Cc1cccc(OC(F)(F)F)c1)Nc1cc(-c2ccc3nc(NC(=O)C4CC4)sc3c2)ccc1F", "values": [{"measurement": "Stability", "setting": "[1]", "result": "Stable"}, {"measurement": "inhibition", "setting": "[2]", "result": "Dose-Dependent Effect"}, {"measurement": "Activity", "setting": "[3]", "result": "Non-Toxic"}, {"measurement": "EC50", "setting": "HT-29 [4]", "result": 17, "unit": "nM"}, {"measurement": "inhibition", "setting": "[5]", "result": "Dose-Dependent Effect"}, {"measurement": "Activity", "setting": "Mus musculus [6]", "result": "inactive"}, {"measurement": "CC50", "setting": "[7]", "result": "> 10000", "unit": "nM"}, {"measurement": "Activity", "setting": "HT-29 [8]", "result": "Dose-Dependent Effect"}, {"measurement": "Activity", "setting": "[9]", "result": "Non-Toxic"}, {"measurement": "inhibition", "setting": "[10]", "result": "Active"}, {"measurement": "survival at 2.5 mg/kg", "setting": "Mus musculus [11]", "result": 80, "unit": "%"}, {"measurement": "Activity", "setting": "Mus musculus [12]", "result": "inactive"}, {"measurement": "Kd", "setting": "[13]", "result": "> 5000", "unit": "nM"}, {"measurement": "Activity", "setting": "Mus musculus [14]", "result": "Dose-Dependent Effect"}, {"measurement": "inhibition", "setting": "[15]", "result": "Active"}, {"measurement": "Activity", "setting": "Mus musculus [16]", "result": "Active"}, {"measurement": "Activity", "setting": "Mus musculus [17]", "result": "Dose-Dependent Effect"}]}
